# From PMC12406664, “New derivatives of 6-nitrocoumarin-3-thiosemicarbazone exhibit improved antiparasitic activity in the placenta against Trypanosoma cruzi and Toxoplasma gondii” (Antimicrobial Agents and Chemotherapy, 2025)
# Entries after “also recorded” stand apart in the source; their conditions may differ.
# What was measured:
# [1] = tested on: T. cruzi trypomastigotes, Dm28 strain; assay: Resazurin viability assay on free T. cruzi trypomastigotes; conditions: Trypanosoma cruzi, 24 h, read-out: Viability T. cruzi (%)
# Experimental: The reduction of resazurin sodium salt was used to determine the trypanocidal and toxoplasmicidal activity of the 6-nitrocoumarin-thiosemicarbazone hybrids 1–8. For this, treatment with the compounds was carried out for 24 h at a concentration of 100 µM.
# NFX was used as a positive control for T. cruzi, and PMN was used for T. gondii. Untreated parasites served as a negative control. […] Subsequently, parasites with their respective conditions were transferred to a 96-well white fluorescence reading plate, adding resazurin at a final concentration of […] with 0.8 mM phenazine. The plate was incubated for 3 hours at 37°C in a humidified atmosphere with 5% CO2, and fluorescence measurements were taken using a microplate reader (Thermo Scientific Varioskan Flash) at excitation wavelengths of 560 nm and emission wavelengths of 590 nm.
# [2] = tested on: T. gondii tachyzoites, RH strain; assay: Resazurin viability assay on free T. gondii tachyzoites; assay type: cell-based, Toxoplasma gondii; conditions: for viability at 100 µM: tachyzoites RH
# Source text: Untreated parasites served as a negative control.
# [3] = Lipophilicity by reversed-phase TLC (RM); conditions: reverse phase-C18, DMSO/phosphate buffer pH 7.4 (70:30 vol/vol), RM = log[(1/Rf) – 1]
# Experimental: Lipophilicity was studied by reversed-phase TLC experiments. Precoated TLC plates SIL RP-18W/UV254 were used and eluted with DMSO/physiological serum (70:30, vol/vol). Stock solutions were prepared in pure DMSO (Aldrich) prior to use. The plates were developed in a closed chromatographic tank, dried, and the spots were located under UV light. The Rf values were averaged from three determinations and converted into RM values via the relationship: RM = log [(1/Rf)−1]
# [4] = Cyclic voltammetry, reduction potentials in DMSO (HDME, vs. Ag/AgCl); conditions: 2.00 V/s; for E(pIIa): anodic peak IIa; for E(pIIc): cathodic peak IIc, nitro anion radical couple; for E(pIca): cathodic peak Ica; for E(pIca) / E(pIcb): nitro reduction; for E(pIcb): cathodic peak Icb; for E(pIIIc): cathodic peak IIIc, hydroxylamine formation; for E(pIVc): cathodic peak IVc, imine reduction
# Experimental: Electrochemical studies were carried out on a Metrohm Autolab instrument model PGSTAT204, using dimethyl sulfoxide (DMSO) as the solvent (1 mM solutions), tetrabutylammonium perchlorate (0.1 M TBAP) as the supporting electrolyte, a hanging drop mercury electrode (HDME) as the working electrode, Ag/AgCl (3M KCl) as the reference electrode and a graphite rod as the counter electrode. All measurements were performed after bubbling with nitrogen (N2) for 10 minutes.
# [5] = Cytotoxicity on cells (resazurin), EA.hy926; assay type: cell-based; conditions: human, EA.hy926 endothelial cells
# Source text: (§1) Triton X-100 was used as a positive control, and untreated cells served as a negative control. In addition, the maximum concentration of DMSO was used as a control for the method. […] The obtained values were expressed as IC50([88]).
# [6] = Cytotoxicity on cells (resazurin), BeWo; assay type: cell-based; conditions: human, BeWo trophoblast cells
# Source text: as §1
# [7] = tested on: T. gondii (RH strain) in BeWo cells; assay: Infection of BeWo cells by T. gondii, infected cells counted by fluorescence microscopy; assay type: cell-based, Toxoplasma gondii; conditions: compound at IC50, untreated control 64 ± 6
# Experimental: The effect of the compounds on the infection of BeWo trophoblast cells by T. gondii and T. cruzi was assessed. The DNA of T. gondii and T. cruzi was quantified in infected BeWo cells treated for 24 hours under two conditions: co-incubation and post-infection treatment. […] Fluorescence microscopy was employed to quantify the number of infected cells. The resulting images were analyzed using ImageJ software to count both infected and uninfected cells.
# For the microscopic analysis of BeWo cells infected with T. cruzi, the cells were washed with PBS to remove the supernatant, fixed with 90% cold methanol, rewashed with PBS, and incubated for 5 minutes with 1 µg/mL—1 4,6-diamidino-2-phenylindole (DAPI) (Molecular Probes). To analyze BeWo cells infected with T. gondii, cells were fixed with 90% cold methanol, washed with PBS containing 0.05% Tween, and blocked using 3% BSA for 1 hour at 37°C. Then, they were incubated with the primary monoclonal antibody Toxoplasma gondii (TP3): sc-52255 at a dilution of 1:500 with 1% BSA overnight at 4°C. Afterward, the samples were incubated with the FITC anti-mouse IgG secondary antibody at a dilution of 1:100 with 1% BSA for 1 hour at 37°C. Finally, they were washed with PBS containing 0.05% Tween and incubated for 5 minutes with DAPI. Subsequently, the sections were mounted in Vectashield (ScyTek ACA). Sections for the analysis of cell infection by T. cruzi and T. gondii were observed under an epifluorescence microscope (Motic BA 310), and images were captured with a Motic 5 camera. T. cruzi amastigotes were identified by their morphology, including nuclear size and the presence of a kinetoplast, and were analyzed and quantified using ImageJ. At least 500 cells per condition were analyzed, and infected and non-infected cells were counted for every 100 cells ([35], [70]).
# (§2) Cells or HPE were exposed to parasites. […] The following treatment conditions were used in both infection models. […] Untreated cells or HPE served as a negative control, and the compounds’ activity was compared with the reference drugs (NFX and PMN).
# [8] = tested on: T. gondii (RH strain) in BeWo cells; assay: T. gondii DNA load in infected BeWo cells by real-time qPCR; assay type: cell-based, Toxoplasma gondii; conditions: IC50 concentration
# Experimental: as §2
# Subsequently, cells were exposed to parasites at a 1:1 ratio (cell: parasite) for 24 hours. Finally, the cells were washed with PBS and harvested using trypsin. For the parasitic DNA load in the ex vivo infection model, HPE was incubated in 24-well plates and exposed to parasites at a concentration of 10^5 parasites/mL for 24 hours. Finally, they were washed with PBS and homogenized using the ultraturrax homogenizer OMNI TipTM. Genomic DNA was extracted from BeWo cells or HPE using the Wizard Genomic DNA Purification Kit (Promega, USA) following the manufacturer’s instructions. The resulting DNA was quantified using a μDrop Plate DNA quantification system on the Varioskan Flash multimode reader (Thermo Scientific, USA). For the amplification of human DNA and parasitic DNA, three pairs of primers specific for human GAPDH (hGADPH), T. cruzi satellite DNA, and T. gondii B1 gene DNA were used (Table 7). Each reaction mixture contained 0.5 µL of 10 nM of each primer (Forward and reverse), 1 ng of DNA from T. cruzi samples, 10 ng of DNA from T. gondii samples, 10 µL of SensiFASTTM SYBR Hi-ROX kit (Bioline, Heidelberg, Baden Württemberg, Germany), and ultrapure water (Sigma-Aldrich, St. Louis, MO, USA) for a total of 20 µL.
# (§3) Amplification was carried out using the CFX96 Touch Deep Well Real-Time PCR Detection System (Biorad, California, USA) with the following cycling program: initial denaturation at 95°C for 3 min, followed by 40 cycles of denaturation at 95°C for 5 s, annealing at 60°C for 30 s, and a dissociation stage ranging from 60°C to 95°C. The relative quantification analysis of the results was expressed as RQ values using the comparative […] (∆∆Ct) ([80]).
# [9] = tested on: T. gondii (RH strain) in HPE; assay: T. gondii DNA load in infected human placental explants (HPE) by real-time qPCR; assay type: cell-based, Toxoplasma gondii; conditions: IC50 concentration
# Experimental: The effect on HPE infection of compounds 1 and 7 by Toxoplasma gondii and Trypanosoma cruzi, respectively, was evaluated. To do this, the DNA of the T. gondii or T. cruzi parasite was quantified by infecting HPE for 24 hours under treatment conditions of co-incubation of compounds with the parasite at the same time of infection, and with a 24 hour post-infection treatment. The compound’s IC50 concentration value previously obtained under both conditions was used.
# Term human placentas were obtained from uncomplicated pregnancies via scheduled cesarean sections. Each patient provided informed consent for the experimental use of the placenta, and the study was approved by the ethics committee of Hospital San José, Servicio Salud Metropolitano Norte (N° 013/2022). Exclusion criteria for placental use included significant fetal anomalies, placental tumors, intrauterine infection, positive serology for Chagas disease, obstetric pathology, and any other maternal disease. Donor patients tested negative for T. gondii IgG/IgM antibodies. Organs were collected in sterile, cold PBS and processed within 30 minutes after delivery. Maternal and fetal surfaces of each placenta were discarded, and the villous tissue from the central part of the placental cotyledons was isolated. […] All the experiments were performed in triplicate in at least three different placentas.
# Cells or HPE were exposed to parasites. […]
# Subsequently, cells were exposed to parasites at a 1:1 ratio (cell: parasite) for 24 hours. […] The resulting DNA was quantified using a μDrop Plate DNA quantification system on the Varioskan Flash multimode reader (Thermo Scientific, USA). […]
# as §3
# [10] = tested on: HPE exposed to T. gondii tachyzoites; assay: Histopathology of HPE infected with T. gondii; assay type: cell-based, human; conditions: IC50 concentration
# Source text: as §2
# [11] = tested on: human placental explants (HPE); assay: Histopathology of uninfected HPE exposed to the compounds alone; conditions: explants incubated only with the compound, 24 h, IC50 concentration
# Experimental: The HPE was fixed in 10% formaldehyde in 0.1 M phosphate buffer (pH 7.3) for 24 h, dehydrated in alcohol, clarified in xylene, embedded in paraffin, and sectioned at 3 µm. Paraffin histological sections were stained with hematoxylin-eosin for routine histological analysis, Picro Sirius red, and trichromic Masson for collagen histochemistry. Sections for the histological analysis were observed under an optical microscope (Leica DM500) and images were captured with a Leica ICC50 W camera ([7], [91]).
# T. gondii = tested on: T. gondii; parameters: method as in ref 26 (a), 34 (e), 38 (f); conditions: Fig. 2 literature compounds; ref 26 (a), 34 (e), 38 (f); cited from earlier work
# T. cruzi = tested on: T. cruzi; parameters: method as in ref 28 (b), 32, 33 (c, d); conditions: Fig. 2 literature compounds; ref 28 (b), 32, 33 (c, d); cited from earlier work
smiles,measurement,setting,value
"CNC(=S)N/N=C(\C)c1c(O)c2cc([N+](=O)[O-])ccc2oc1=O [Compound 2, (E)−2-(1-(4-hydroxy-6-nitro-2-oxo-2H-chromen-3-yl)ethylidene)-N-methylhydrazine-1-carbothioamide]",viability at 100 µM,[1],81.5 ± 14.1%
same,viability at 100 µM,"[2]; Toxoplasma gondii, 24 h",29.1 ± 13.5%
same,Lipophilicity (RM),[3],0.13
same,E(pIIa),[4],−1.01 V
same,E(pIIc),[4],−1.08 V
same,E(pIca),[4],−0.89 V
same,E(pIcb),[4],−0.99 V
"CCNC(=S)N/N=C(\C)c1c(O)c2cc([N+](=O)[O-])ccc2oc1=O [Compound 3, (E)-N-ethyl-2-(1-(4-hydroxy-6-nitro-2-oxo-2H-chromen-3-yl)ethylidene)hydrazine-1-carbothioamide]",viability at 100 µM,[1],70.7 ± 9.4%
same,viability at 100 µM,"[2]; Toxoplasma gondii, 24 h",49.6 ± 13.5%
same,Lipophilicity (RM),[3],0.33
same,E(pIIa),[4],−1.00 V
same,E(pIIc),[4],−1.08 V
same,E(pIca),[4],−0.88 V
same,E(pIcb),[4],−0.99 V
"C/C(=N\NC(=S)Nc1ccccc1)c1c(O)c2cc([N+](=O)[O-])ccc2oc1=O [Compound 4, (E)−2-(1-(4-hydroxy-6-nitro-2-oxo-2H-chromen-3-yl)ethylidene)-N-phenylhydrazine-1-carbothioamide]",viability at 100 µM,[1],50.3 ± 5%
same,viability at 100 µM,"[2]; Toxoplasma gondii, 24 h",84.4 ± 13.7%
same,Lipophilicity (RM),[3],0.85
same,E(pIIa),[4],−1.01 V
same,E(pIIc),[4],−1.09 V
same,E(pIca),[4],−0.62 V
same,E(pIcb),[4],−1.05 V
"C/C(=N\NC(N)=S)c1cc2cc([N+](=O)[O-])ccc2oc1=O [Compound 5, (E)−2-(1-(6-nitro-2-oxo-2H-chromen-3-yl)ethylidene)hydrazine-1-carbothioamide]",viability at 100 µM,[1],44.6 ± 7.1%
same,viability at 100 µM,"[2]; Toxoplasma gondii, 24 h",65.7 ± 14.8%
same,Lipophilicity (RM),[3],−0.58
same,E(pIIa),[4],−0.90 V
same,E(pIIIc),[4],~−1.38 V
same,E(pIIc),[4],~−0.94 V
same,E(pIVc),[4],~−1.66 V
"CNC(=S)N/N=C(\C)c1cc2cc([N+](=O)[O-])ccc2oc1=O [Compound 6, (E)-N-methyl-2-(1-(6-nitro-2-oxo-2H-chromen-3-yl)ethylidene)hydrazine-1-carbothioamide]",viability at 100 µM,[1],49.8 ± 5.3%
same,viability at 100 µM,"[2]; Toxoplasma gondii, 24 h",55.5 ± 9.6%
same,Lipophilicity (RM),[3],−0.41
same,E(pIIa),[4],−0.87 V
same,E(pIIIc),[4],−1.40 V
same,E(pIIc),[4],−0.93 V
same,E(pIVc),[4],−1.68 V
"CCc1nc(N)nc(N)c1-c1ccc(Cl)cc1 [PMN, pyrimethamine, reference compound]",IC50,"[2]; Toxoplasma gondii, extracellular tachyzoites RH strain, 24 h, resazurin",20.8 ± 1.1 µM
same,SI = BeWo CC50/parasite IC50,[2]; parasite T. gondii,6.03
same,SI = EA.hy926 CC50/parasite IC50,[2]; parasite T. gondii,13.8
same,CC50 at 24 h,[5],287.5 ± 0.9 µM
same,CC50 at 24 h,[6],125.5 ± 0.8 µM
same,Infected cells (%),[7]; co-incubation 24 h,19 ± 2%
same,Infected cells (%),[7]; post-infection treatment 24 h,16 ± 4%
same,effect on parasite DNA load,[8]; co-incubation,more significant
same,effect on parasite DNA load,[8]; post-infection treatment,significantly reduced the parasite DNA load
same,effect on parasite DNA load,[9]; 24 hour post-infection treatment,decreased; also recorded: effectively reduced the explants’ parasitic load
same,effect on parasite DNA load,[9]; co-incubation,effectively reducing the parasitic load
same,tissue damage in infected HPE (histopathology),[10]; co-incubation,without causing tissue damage
same,tissue damage in infected HPE (histopathology),[10]; post-infection treatment,decreased the induced tissue damage
same,tissue damage caused by the compound itself in HPE,[11],neither compound induced tissue damage
COc1ccc(/C(COc2ccc(F)cc2)=N\NC(N)=S)cc1 [a],IC50,T. gondii,1.09 µM
NC(=S)N/N=C/c1ccc([N+](=O)[O-])o1 [b],IC50,T. cruzi,9.8 µM
O=C(Cc1c([N+](=O)[O-])c(=O)oc2ccccc12)c1cccnc1 [c],IC50,T. cruzi,137 µM
O=c1oc2c(O)c(O)ccc2cc1-c1ccccc1O [d],IC50,T. cruzi,39.7 µM
C/C(=N\N=C1\NC(=O)CS1)c1cc2ccccc2oc1=O [e],IC50,T. gondii,8 µM
O=C(O)c1cn(C2CC2)c2cc(N3CCN(Cc4ccc([N+](=O)[O-])o4)CC3)c(F)cc2c1=O [f],IC50,T. gondii,7.9 µM
